Counter-ions that a name gives are not always drawn.
Columns and labels:
[1] = target: T1, MMP-1 (Homo sapiens, UniProt P03956); assay: MMP-1 inhibition (thiopeptide or fluorescent peptide substrate); assay type: biochemical; settings: plain number = IC50
T1 sequence (P03956 100-469): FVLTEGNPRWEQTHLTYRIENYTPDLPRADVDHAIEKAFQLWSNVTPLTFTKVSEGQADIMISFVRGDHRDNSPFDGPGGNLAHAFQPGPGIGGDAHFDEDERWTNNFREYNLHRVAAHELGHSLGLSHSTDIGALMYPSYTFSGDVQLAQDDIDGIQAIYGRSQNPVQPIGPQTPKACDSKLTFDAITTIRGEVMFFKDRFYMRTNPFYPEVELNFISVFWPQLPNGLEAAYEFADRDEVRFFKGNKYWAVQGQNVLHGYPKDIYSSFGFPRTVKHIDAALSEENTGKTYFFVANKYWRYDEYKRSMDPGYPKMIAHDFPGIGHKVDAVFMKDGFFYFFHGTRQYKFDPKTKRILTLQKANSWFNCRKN
Description: (§1) The enzyme activity is measured by the rate of the color increase. The thiopeptide substrate is made up fresh as a 20 mM stock in 100% DMSO and the DTNB is dissolved in 100% DMSO as a 100 mM stock and stored in the dark at room temperature. Both the substrate and DTNB are diluted together to 1 mM with substrate buffer (50 mM HEPES pH 7.5, 5 mM CaCl2) before use. The stock of enzyme is diluted with buffer (50 mM HEPES, pH 7.5, 5 mM CaCl2, 0.02% Brij) to the desired final concentration.
(§2) Alternatively, a fluorescent peptide substrate is used. In this test procedure, the peptide substrate contains a fluorescent group and a quenching group. Upon cleavage of the substrate by an MMP, the fluorescence that is generated is quantitated on the fluorescence plate reader. The assay is run in HCBC assay buffer (50mM HEPES, pH 7.0, 5 mM Ca^+2, 0.02% Brij, 0.5% Cysteine), with human recombinant MMP-1, MMP-9, or MMP-13. The substrate is dissolved in methanol and stored frozen in 1 mM aliquots. For the assay, substrate and enzymes are diluted in HCBC buffer to the desired concentrations. Compounds are added to the 96 well plate containing enzyme and the reaction is started by the addition of substrate.
(§3) For either the thiopeptide or fluorescent peptide test procedures, the slope of the line is calculated and represents the reaction rate. The linearity of the reaction rate is confirmed (r^2 >0.85). The mean (x±sem) of the control rate is calculated and compared for statistical significance (p<0.05) with drug-treated rates using Dunnett's multiple comparison test.

[2] = target: MMP-9 (Homo sapiens, UniProt P14780); assay: MMP-9 inhibition (thiopeptide or fluorescent peptide substrate); assay type: biochemical
Description: as §1, §2, §3

[3] = target: MMP-13 (Homo sapiens, UniProt P45452); assay: MMP-13 inhibition (thiopeptide or fluorescent peptide substrate); assay type: biochemical
Description: as §1, §2, §3

[4] = target: TNF-α converting enzyme (TACE) (Homo sapiens, UniProt P78536); assay: TACE inhibition (fluorescent peptidyl substrate); assay type: biochemical; settings: read-out: IC50 (nM) or % Inhibition (µM) TACE
Description: Using 96-well black microtiter plates, each well receives a solution composed of 10 µL TACE (final concentration 1µg/mL), 70µL Tris buffer, pH 7.4 containing 10% glycerol (final concentration 10 mM), and 10 µL of test compound solution in DMSO (final concentration 1µM, DMSO concentration <1%) and incubated for 10 minutes at room temperature. The reaction is initiated by addition of a fluorescent peptidyl substrate (final concentration 100 µM) to each well and then shaking on a shaker for 5 sec.
The reaction is read (excitation 340 nm, emission 420 nm) for 10 min. and the increase in fluorescence over time is plotted as a linear line. The slope of the line is calculated and represents the reaction rate.
The linearity of the reaction rate is confirmed (r^2 >0.85). The mean (x±sem) of the control rate is calculated and compared for statistical significance (p<0.05) with drug-treated rates using Dunnett's multiple comparison test.

[5] = system: THP-1 cells; assay: THP-1 soluble protein assay (LPS-stimulated human monocytic THP-1 cells); assay type: cell-based; settings: Homo sapiens, LPS-stimulated THP-1 cells, read-out: % Inhib. @ 3µM THP
Source text: Mitogenic stimulation of THP-1 cells cause differentiation into macrophage like cells with concomitant secretion of tumor necrosis factor (TNF-a) and TNF receptor (TNF-R p75/80 and TNF-R p55/60) and Interleukin-8 (IL-8), among other proteins. In addition, non-stimulated THP-1 cells shed both the p75/80 and the p55/60 receptors over time. The release of membrane bound TNF-α and possibly TNF-R p75/80 and TNF-R p55/60, but not IL-8, is mediated by an enzyme called TNF-a converting enzyme or TACE.
THP-1 cells (from ATCC) are a human monocytic cell line which were obtained from the peripheral blood of a person with acute monocytic leukemia. They can be grown in culture and differentiated into macrophage like cells by stimulation with mitogens.
Each vial of cells are cultured for about two weeks prior to being used for an assay and then are used for only 4 to 6 weeks to screen compounds.
Cell exposure to DMSO was limited to 0.1 % final concentration. […] Compounds can be evaluated for their effect on basal (non-stimulated) shedding of the receptors by replacing the LPS with […] of THP-1 media. Plates are placed into an incubator set at 5% CO2 and at 37°C. After 4 hours of incubation, […] of tissue culture supernatant (TCS) is removed for use in an TNF-a ELISA. Following 24 hours of incubation, […] of TCS is removed and used for analysis in TNF-R p75/80, TNF-R p55/60 and IL-8 ELISAs.
In addition, at the 24 hours timepoint, and the cells for each treatment group are collected by resuspension in 500 µl/well of THP-1 media and transferred into a FACS tube. […] The samples are run on a Becton Dickinson FaxCaliber FLOW cytometry machine and the amount of dye taken up by each cell is measured in the high red wavelength (FL3). Only cells with compromised membranes (dead or dying) can take up PI. The percent of live cells is calculated by the number of cells not stained with PI, divided by the total number of cells in the sample. The viability values calculated for the drug treated groups were compared to the viability value calculated for the vehicle treated mitogen stimulated group ("vehicle positive control") to determine the "percent change from control". This "percent change from control" value is an indicator of drug toxicity.
The quantity of soluble TNF-a, TNF-R p75/80 and TNF-R p55/60 and IL-8 in the TCS of the THP-1 cell cultures are obtained with commercially available ELISAs from R&D Systems, by extrapolation from a standard curve generated with kit standards. The number of cells that either take up or exclude PI are measured by the FLOW cytometry machine and visualized by histograms using commercially available Cytologic software for each treatment group including all controls.
Biological variability in the magnitude of the response of THP-1 cell cultures requires that experiments be compared on the basis of percent change from "vehicle positive control" for each drug concentration. Percent change in each soluble protein evaluated from the "vehicle positive control" was calculated for each compound concentration with the following formula: % Change =(pg/ml(compound) - pg/ml (veh pos control))/(pg/ml (veh pos control) - pg/ml(veh neg control))x 100 [formula]
For the soluble protein (TNF-a, p75/80, p55/60, IL-8) studies under stimulated conditions, the mean pg/ml of duplicate wells were determined and the results expressed as percent change from "vehicle positive control". For the soluble protein (p75/80 and p55/60 receptors) studies under non-stimulated conditions, the mean pg/ml of duplicate wells were determined and the results expressed as percent change from "vehicle positive control" utilizing the following formula: % Change =(pg/ml (compound neg control) - pg/ml (veh neg control)/(pg/ml (veh neg control))X 100 [formula]
IC50 values for each compound are calculated by non-linear regression analysis using customized software utilizing the JUMP statistical package.

Sequence of TNF-α converting enzyme (TACE) (P78536 215-824, species assumed): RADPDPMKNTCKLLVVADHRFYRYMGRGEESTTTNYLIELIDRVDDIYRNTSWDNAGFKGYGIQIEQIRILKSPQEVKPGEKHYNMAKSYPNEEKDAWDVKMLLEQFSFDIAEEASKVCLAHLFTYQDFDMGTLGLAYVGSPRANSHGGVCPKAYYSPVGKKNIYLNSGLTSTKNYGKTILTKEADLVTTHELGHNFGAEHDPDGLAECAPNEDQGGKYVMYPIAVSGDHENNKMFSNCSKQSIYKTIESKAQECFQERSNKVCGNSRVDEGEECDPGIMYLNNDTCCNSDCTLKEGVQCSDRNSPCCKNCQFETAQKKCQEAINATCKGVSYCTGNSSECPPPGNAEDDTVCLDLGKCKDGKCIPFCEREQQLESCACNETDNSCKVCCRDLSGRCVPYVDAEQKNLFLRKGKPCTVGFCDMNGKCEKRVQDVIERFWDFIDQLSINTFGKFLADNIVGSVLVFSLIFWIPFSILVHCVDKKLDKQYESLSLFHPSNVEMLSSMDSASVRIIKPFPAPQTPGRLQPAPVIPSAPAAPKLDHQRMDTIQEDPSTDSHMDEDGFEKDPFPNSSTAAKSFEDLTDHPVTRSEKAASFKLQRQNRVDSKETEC
Sequence of MMP-9 (P14780 94-707): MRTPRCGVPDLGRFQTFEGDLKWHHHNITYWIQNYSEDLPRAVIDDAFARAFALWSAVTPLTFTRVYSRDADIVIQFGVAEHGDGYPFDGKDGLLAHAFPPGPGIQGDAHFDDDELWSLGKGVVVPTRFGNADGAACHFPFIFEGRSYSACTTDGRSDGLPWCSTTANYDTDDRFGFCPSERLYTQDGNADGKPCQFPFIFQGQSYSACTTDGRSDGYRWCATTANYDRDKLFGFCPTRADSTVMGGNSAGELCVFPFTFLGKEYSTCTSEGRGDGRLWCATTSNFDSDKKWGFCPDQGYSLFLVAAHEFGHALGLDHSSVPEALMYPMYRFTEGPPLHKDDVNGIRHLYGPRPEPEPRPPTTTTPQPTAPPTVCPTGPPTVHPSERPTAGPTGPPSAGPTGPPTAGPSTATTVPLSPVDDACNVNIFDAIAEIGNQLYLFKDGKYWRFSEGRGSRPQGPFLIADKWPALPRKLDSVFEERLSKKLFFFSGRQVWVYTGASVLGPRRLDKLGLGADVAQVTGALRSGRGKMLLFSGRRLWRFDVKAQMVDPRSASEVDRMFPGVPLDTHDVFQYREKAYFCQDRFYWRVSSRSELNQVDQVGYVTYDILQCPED

Row | IC50 [1] | IC50 [2] | IC50 [3] | IC50 [4] | Structure (SMILES) | inhibition at 3 µM [5]
1 | 1920 nM | 28 nM | 47 nM | 42 nM | CC#CCOc1ccc(S(=O)(=O)N(C)c2c(CN3CCN(C)CC3)cc(-c3ccccc3)cc2C(=O)NO)cc1 [Example 76, 4-[(4-But-2-ynyloxy-benzenesulfonyl)-methyl-amino]-5-(4-methyl-piperazin-1-ylmethyl)-biphenyl-3-carboxylic acid hydroxyamide dihydro-chloride salt] | 95%
2 | 1530 nM | 455 nM | 433 nM | 122 nM | C#CC(C)Oc1ccc(S(=O)(=O)N(C)c2c(C)cc(Br)cc2C(=O)NO)cc1 (stereo not drawn) [Example 79, 5-Bromo-N-hydroxy-3-methyl-2-{methyl-[4-(1-methyl-prop-2-ynyloxy)-benzenesulfonyl]-amino}-benzamide] | 9%
3 | 113 nM | 694 nM | 189 nM | 34 nM | Cc1cc(Br)cc(C(=O)NO)c1N(C)S(=O)(=O)c1ccc(OCC#Cc2cccc(O)c2)cc1 [Example 84, 5-Bromo-N-hydroxy-2-({4-[3-(3-hydroxy-phenyl)-prop-2-ynyloxy]-benzenesulfonyl}-methyl-amino)-3-methyl-benzamide] | 0%

— patent EP1144369B1 (Wyeth Holdings Corporation, priority 1999, dated 2000)
